Data published in patent publication US20130195926A1, “MODULATION OF NITRIC OXIDE SIGNALING TO NORMALIZE TUMOR VASCULATURE” (The General Hospital Corporation, priority 2007, published 2013).

Experiments:
[1] = system: U87 gliomas; assay: NO distribution in U87 gliomas by DAF-2T fluorescence (MPLSM); assay type: in vivo, mice; details: U87 tumor with shRNA58 vs parental U87, cranial window, Rag-1-/- mice
Method: FIGS. 3A-B show microfluorographs depicting NO distribution in U87 gliomas grown in the cranial window in Rag-1^−/−. NO production was visualized by means of DAF-2T fluorescence 0, 20, 40 and 60 min after DAF-2 (0.5 mg/body) injection. Left column, micro-angiography with tetramethylrhodamine-dextran (2000 kDa). Middle column, representative DAF-2T microfluorography captured 60 min after the loading of DAF-2 in tumors. Right column, pseudocolor representation of DAF-2T microfluorographs. […] Bars indicate 100 μm. (A) NO distribution in parental U87MG (top row) or nNOS shRNA58-transfected-U87 (bottom row) tumors. […]
Vascular parameters such as functional vessel density (the total length of perfused microvessels per unit area) and vessel diameter were analyzed by tracing each vessel segment using NIH image 1.63 as described elsewhere (Kashiwagi, S., et al. 2005 J. Clin. Invest. 115, 1816-1827). Tissue distribution of NO was visualized using MPLSM and the NO-sensitive fluorescence probe 4,5-diaminofluorescein (DAF-2) (0.5 mg i.v. Daiichi Pure Chemicals Co. Ltd) as described previously (Kashiwagi, S., et al. 2005 J. Clin. Invest. 115, 1816-1827). NO converts DAF-2 to 4,5-diaminofluorescein triazolium (DAF-2T) increasing fluorescence by a factor of 200. The DAF-2 associated fluorescence images were captured 60 min after i.v. injection. […]

[2] = system: U87 tumors; assay: Fractionated radiation therapy of U87 tumors grown in the hind leg; assay type: in vivo, mice; details: 3 daily fractions of 8 Gy, compared to irradiated U87MG tumor bearing animals
Method: When tumors grown in the hindleg reached about 100 mm^3, animals were randomly assigned to radiation or control group (day 0). In the radiation groups, tumors were locally irradiated with three daily fractions, 8 Gy each, using a ^137Cs gamma irradiator (Hranitzky, E. B., et al. 1973 Radiology 107, 641-644) at a dose rate of approximately 5 Gy/min. The details of irradiation are described elsewhere (Kozin, S. V., et al. 2001 Cancer Research 61, 39-44). Tumor size was measured with a caliper at least every other day. The time taken for tumor to increase in volume 2×, 3×, 4×, 5×, 6×, and 7× of the initial volume (V0) was determined. Tumor growth delay was calculated as the difference of this parameter between irradiated tumors and nonradiated control tumors of the same genotype. Mice were euthanized when the tumors reached 12 mm in diameter. Survival time of individual animals (spontaneous death or by euthanasia at maximum tumor size) was determined after the start of radiation/control treatment.
The effect of radiation treatment on U87MG, U87-shRNA58 and U87-shRNA150 tumors was determined. Tumors were grown subcutaneously in the hind leg of Rag-1^−/− mice. When tumors reached ˜100 mm^3, they were randomly assigned to control and radiation treatment groups. […] Tumor growth and overall animal survival were monitored. […]

Substance | DAF-associated fluorescence (NO distribution) [1] | animal survival after radiation treatment [2]
shRNA58: short-hairpin RNA for nNOS, CAAAGAGATCGACACCATC (sense), GATGGTGTCGATCTCTTTGTT (antisense), in pSilencer 3.1 H-1-hygro, stably transfected into U87MG | predominantly localized in vascular region | Significant extension
shRNA150: short-hairpin RNA for nNOS, GGTCTATCCAATGTCCACA (sense), TGTGGACATTGGATAGACCTT (antisense), in pSilencer 3.1 H-1-hygro | – | Significant extension
